# Biological target: Aβ42 (Homo sapiens, UniProt P05067)
# Test: Th-T (thioflavin-T) assay of Aβ42 aggregation
# Assay type: biochemical
# Details: for Th-T assay plate reading, mean of three wells (Supplementary Fig. 47): source data, Ab alone and No Ab as controls
# Chain of Aβ42 (P05067 672-713): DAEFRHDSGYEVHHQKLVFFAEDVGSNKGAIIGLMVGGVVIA
structure (smiles),measurement,setting,value
C=C1CCC2C(C)(CCC=C(C)C)C(O)CCC2(C)C1Cc1c(OC)oc(C)c(C)c1=O (stereo not drawn) [Compound 11],"Th-T fluorescence, mean of three wells","Aβ42 aggregation time course, reading M117",3.419
same,"Th-T fluorescence, mean of three wells","Aβ42 aggregation time course, reading M118",3.454
same,"Th-T fluorescence, mean of three wells","Aβ42 aggregation time course, reading M119",3.399
same,"Th-T fluorescence, mean of three wells","Aβ42 aggregation time course, reading M120",3.398
same,"Th-T fluorescence, mean of three wells","Aβ42 aggregation time course, reading M121",3.42
same,"Th-T fluorescence, mean of three wells","Aβ42 aggregation time course, reading M122",3.434
same,"Th-T fluorescence, mean of three wells","Aβ42 aggregation time course, reading M123",3.405
same,"Th-T fluorescence, mean of three wells","Aβ42 aggregation time course, reading M124",3.409
same,"Th-T fluorescence, mean of three wells","Aβ42 aggregation time course, reading M125",3.379
same,"Th-T fluorescence, mean of three wells","Aβ42 aggregation time course, reading M126",3.403
same,"Th-T fluorescence, mean of three wells","Aβ42 aggregation time course, reading M127",3.386
same,"Th-T fluorescence, mean of three wells","Aβ42 aggregation time course, reading M128",3.37
same,"Th-T fluorescence, mean of three wells","Aβ42 aggregation time course, reading M129",3.334
same,"Th-T fluorescence, mean of three wells","Aβ42 aggregation time course, reading M130",3.361
same,"Th-T fluorescence, mean of three wells","Aβ42 aggregation time course, reading M131",3.331
same,"Th-T fluorescence, mean of three wells","Aβ42 aggregation time course, reading M132",3.363
same,"Th-T fluorescence, mean of three wells","Aβ42 aggregation time course, reading M133",3.349
same,"Th-T fluorescence, mean of three wells","Aβ42 aggregation time course, reading M134",3.347
same,"Th-T fluorescence, mean of three wells","Aβ42 aggregation time course, reading M135",3.342
same,"Th-T fluorescence, mean of three wells","Aβ42 aggregation time course, reading M136",3.355
same,"Th-T fluorescence, mean of three wells","Supplementary Fig. 47, reading M137",3.327
same,"Th-T fluorescence, mean of three wells","Supplementary Fig. 47, reading M138",3.302
same,"Th-T fluorescence, mean of three wells","Supplementary Fig. 47, reading M139",3.301
same,"Th-T fluorescence, mean of three wells","Supplementary Fig. 47, reading M140",3.319
same,"Th-T fluorescence, mean of three wells","Supplementary Fig. 47, reading M141",3.315
same,"Th-T fluorescence, mean of three wells","Supplementary Fig. 47, reading M142",3.306
same,"Th-T fluorescence, mean of three wells","Supplementary Fig. 47, reading M143",3.276
same,"Th-T fluorescence, mean of three wells","Supplementary Fig. 47, reading M144",3.297
same,"Th-T fluorescence, mean of three wells","Supplementary Fig. 47, reading M145",3.29
same,"Th-T assay plate reading, mean of three wells (Supplementary Fig. 47)",measurement M1,0.2852
same,"Th-T assay plate reading, mean of three wells (Supplementary Fig. 47)",measurement M2,0.2849
same,"Th-T assay plate reading, mean of three wells (Supplementary Fig. 47)",measurement M3,0.2915
same,"Th-T assay plate reading, mean of three wells (Supplementary Fig. 47)",measurement M4,0.2733
same,"Th-T assay plate reading, mean of three wells (Supplementary Fig. 47)",measurement M5,0.2777
same,"Th-T assay plate reading, mean of three wells (Supplementary Fig. 47)",measurement M6,0.2762
same,"Th-T assay plate reading, mean of three wells (Supplementary Fig. 47)",measurement M7,0.318
same,"Th-T assay plate reading, mean of three wells (Supplementary Fig. 47)",measurement M8,0.3144
same,"Th-T assay plate reading, mean of three wells (Supplementary Fig. 47)",measurement M9,0.404
same,"Th-T assay plate reading, mean of three wells (Supplementary Fig. 47)",measurement M10,0.4577
same,"Th-T assay plate reading, mean of three wells (Supplementary Fig. 47)",measurement M11,0.5537
same,"Th-T assay plate reading, mean of three wells (Supplementary Fig. 47)",measurement M12,0.8108
same,"Th-T assay plate reading, mean of three wells (Supplementary Fig. 47)",measurement M13,1.388
same,"Th-T assay plate reading, mean of three wells (Supplementary Fig. 47)",measurement M14,1.929
same,"Th-T assay plate reading, mean of three wells (Supplementary Fig. 47)",measurement M15,2.27
same,"Th-T assay plate reading, mean of three wells (Supplementary Fig. 47)",measurement M16,2.506
same,"Th-T fluorescence, mean of three wells","reading M17, Supplementary Fig. 47 source data",2.688
same,"Th-T fluorescence, mean of three wells","time-course reading M97, Supplementary Fig. 47 source data",3.56
same,"Th-T fluorescence, mean of three wells","time-course reading M98, Supplementary Fig. 47 source data",3.55
same,"Th-T fluorescence, mean of three wells","time-course reading M99, Supplementary Fig. 47 source data",3.504
same,"Th-T fluorescence, mean of three wells","time-course reading M100, Supplementary Fig. 47 source data",3.536
same,"Th-T fluorescence, mean of three wells","time-course reading M101, Supplementary Fig. 47 source data",3.529
same,"Th-T fluorescence, mean of three wells","time-course reading M102, Supplementary Fig. 47 source data",3.494
same,"Th-T fluorescence, mean of three wells","time-course reading M103, Supplementary Fig. 47 source data",3.477
same,"Th-T fluorescence, mean of three wells","time-course reading M104, Supplementary Fig. 47 source data",3.513
same,"Th-T fluorescence, mean of three wells","time-course reading M105, Supplementary Fig. 47 source data",3.503
same,"Th-T fluorescence, mean of three wells","time-course reading M106, Supplementary Fig. 47 source data",3.461
same,"Th-T fluorescence, mean of three wells","time-course reading M107, Supplementary Fig. 47 source data",3.469
same,"Th-T fluorescence, mean of three wells","time-course reading M108, Supplementary Fig. 47 source data",3.473
same,"Th-T fluorescence, mean of three wells","time-course reading M109, Supplementary Fig. 47 source data",3.5
same,"Th-T fluorescence, mean of three wells","time-course reading M110, Supplementary Fig. 47 source data",3.498
same,"Th-T fluorescence, mean of three wells","time-course reading M111, Supplementary Fig. 47 source data",3.4993
same,"Th-T fluorescence, mean of three wells","time-course reading M112, Supplementary Fig. 47 source data",3.484
same,"Th-T fluorescence, mean of three wells","time-course reading M113, Supplementary Fig. 47 source data",3.437
same,"Th-T fluorescence, mean of three wells","time-course reading M114, Supplementary Fig. 47 source data",3.447
same,"Th-T fluorescence, mean of three wells","time-course reading M115, Supplementary Fig. 47 source data",3.426
same,"Th-T fluorescence, mean of three wells","time-course reading M116, Supplementary Fig. 47 source data",3.43
